Measured values: ChEMBL document CHEMBL2439971, “Design, synthesis and antiproliferative evaluation of fluorenone analogs with DNA topoisomerase I inhibitory properties” (Bioorg Med Chem, 2013)
Calls of active or inactive are those of the source. No cut-off for these calls is given here.

Key:
Homo sapiens = organism: Homo sapiens; assay: Inhibition of telomerase (unknown origin) at 10 uM TRAP assay
PC-3 = assay: Cytotoxicity against human PC3 cells after 48 hrs by sulforhodamine B assay; assay type: functional, cell-based; details: PC-3, 48 h

Row | Structure (SMILES) | inhibition (Homo sapiens) | IC50 (PC-3) [µM]
1 | O=C1c2cc([N+](=O)[O-])ccc2-c2ccc([N+](=O)[O-])cc21 | inactive | > 30
2 | O=C(CCN1CCCCC1)Nc1ccc2c(c1)C(=O)c1cc(NC(=O)CCN3CCCCC3)ccc1-2 | inactive | 6.26
3 | O=C(CN1CCCCC1)Nc1ccc2c(c1)C(=O)c1cc(NC(=O)CN3CCCCC3)ccc1-2 | inactive | > 30
4 | O=C(CCN1CCCC1)Nc1ccc2c(c1)C(=O)c1cc(NC(=O)CCN3CCCC3)ccc1-2 | inactive | 6.06
5 | O=C(CN1CCOCC1)Nc1ccc2c(c1)C(=O)c1cc(NC(=O)CN3CCOCC3)ccc1-2 | inactive | > 30
6 | CCCCNCCC(=O)Nc1ccc2c(c1)C(=O)c1cc(NC(=O)CCNCCCC)ccc1-2 | inactive | 26.9
7 | CC(C)NCC(=O)Nc1ccc2c(c1)C(=O)c1cc(NC(=O)CNC(C)C)ccc1-2 | inactive | 6.19
8 | Nc1ccc2c(c1)C(=O)c1cc(N)ccc1-2 | inactive | > 30
9 | O=C(CCNCCO)Nc1ccc2c(c1)C(=O)c1cc(NC(=O)CCNCCO)ccc1-2 | inactive | 19.2
10 | CC(C)NCCC(=O)Nc1ccc2c(c1)C(=O)c1cc(NC(=O)CCNC(C)C)ccc1-2 | inactive | 10

Further lines, with some results ahead:

Row | inhibition (Homo sapiens) | Structure (SMILES) | IC50 (PC-3) [µM]
11 | inactive | CC(C)SCC(=O)Nc1ccc2c(c1)C(=O)c1cc(NC(=O)CSC(C)C)ccc1-2 | > 30
12 | inactive | CCCSCCC(=O)Nc1ccc2c(c1)C(=O)c1cc(NC(=O)CCSCCC)ccc1-2 | > 30
13 | inactive | O=C(CNCCO)Nc1ccc2c(c1)C(=O)c1cc(NC(=O)CNCCO)ccc1-2 | > 30
14 | inactive | O=C(CCl)Nc1ccc2c(c1)C(=O)c1cc(NC(=O)CCl)ccc1-2 | 0.55
15 | inactive | CCCNCCC(=O)Nc1ccc2c(c1)C(=O)c1cc(NC(=O)CCNCCC)ccc1-2 | 20.8
16 | inactive | CC(C)SCCC(=O)Nc1ccc2c(c1)C(=O)c1cc(NC(=O)CCSC(C)C)ccc1-2 | > 30
17 | inactive | CC(C)CNCC(=O)Nc1ccc2c(c1)C(=O)c1cc(NC(=O)CNCC(C)C)ccc1-2 | > 30
18 | inactive | O=C(CCCl)Nc1ccc2c(c1)C(=O)c1cc(NC(=O)CCCl)ccc1-2 | > 30
19 | inactive | CCSCC(=O)Nc1ccc2c(c1)C(=O)c1cc(NC(=O)CSCC)ccc1-2 | > 30
20 | inactive | O=C(CSCCO)Nc1ccc2c(c1)C(=O)c1cc(NC(=O)CSCCO)ccc1-2 | > 30
